Data: US20130115182A1, “TOPICAL USE OF STEVIOL OR DERIVATIVES IN HAIR CARE” (DSM NUTRITIONAL PRODUCTS LTD., priority 2010, published 2013)

Tests used:
[1] = tested on: Normal human melanocytes NHM (HEMn-MP, Clonetics); experiment: Quantification of melanin synthesis in cell culture; assay type: cell-based; conditions: for Melanin content, percentage of the control: three days, absorbance 405 nm
Method: Normal human melanocytes NHM (HEMn-MP, Clonetics) were seeded in 96 well cell culture plates and grown to sub-confluence for two days in a mixture of M2-Medium (Clonetics) and Medium (Promocell). Culture medium was exchanged with Culture Medium containing Steviol and melanogenesis progressed for another three days at 37° C. with another medium exchange on day two. Including cell layer and culture supernatant the total melanin was extracted using 1.7M KOH with vigorous shaking at RT. We measured melanin content at 405 nm in an absorbance plate reader. The data is normalized to 100% for the un-treated control sample, and expressed as percentage of the control.

[2] = tested on: normal human scalp skin hair follicles; experiment: Hair follicle melanogenesis (in vitro graying of cultured anagen VI scalp hair follicles); assay type: cell-based; design: key: remaining pigmentation is scored minimal (+); steviol 1.25 μM (++); Remaining pigmentation is scored (+++); conditions: seven day culture
Text: For optimal quality of hair follicles with an intact pigmentary-unit, normal human scalp skin hair follicles in the anagen VI stage of the hair cycle were isolated from scalp skin biopsies obtained from elective plastic surgery after obtaining informed consent from patients following the protocol published by Philpott and colleagues with slight modifications (Philpott et al. 1990, Philpott 1999). Briefly, after separation of epidermis and dermis from subcutaneous fat the dermis just above the dermis/subcutis border under a binocular dissecting microscope, the proximal two thirds of anagen hair follicles located in the subcutaneous fat were isolated using watchmakers forceps and subsequently collected in Petri dishes containing complete hair follicle culture medium (Williams E, Biochrom KG seromed, Berlin, Germany); 1% Penicillin-Streptomycin; 1% L-Glutamine 200 mM; 0.02% hydrocortisone; 0.1% Insulin. Three hair follicles per well were then randomly distributed and cultured in 24 well plates (Costar, N.Y., USA) containing […] of complete hair follicle culture medium per well. Per experiment, a minimum of three wells (containing three hair follicles each) was assigned to each test group, and was supplemented with different concentrations of test substances pre-diluted in the respective dissolvent 100× concentrated. An equal number of control follicles were cultured in complete hair follicle culture medium alone. Each experiment was repeated with hair follicles from at least three different age, pigmentation and sex matched donors. Every second day, each well was photo-documented, the pigmentation degree of each hair follicle determined, medium replaced and fresh supplements added. After 7 days hair follicles were snap frozen and stored at −80° C. Steviol was tested at two different concentrations (0.625 and 1.25 μM). […] Sphingosyl phosphorylcholine at 1 μM was used as a positive control as it is known from previous work to reduce the speed of in vitro hair graying. Remaining pigmentation is scored (+++). […]

[3] = tested on: Human hair follicles; experiment: Growth of human hair follicle (length measurements in culture); assay type: cell-based; conditions: for Growth (% of control): hair follicle length
Method: (§1) Human hair follicles were obtained from human skin fragments (obtained by plastic surgery) and grown in supplemented William's E medium supplemented with penicillin/streptomycin, L-glutamine (2 mM), insulin (10 μg/ml and hydrocortisone (8 nM). Hair follicle growth was assessed via length measurements (day 0, 4, 7). Triiodothyronine (T3, 30 μM) was used as positive control. The effect of steviol (at 0.625 to 5 μg/ml) was tested in parallel. At day 7, RNA was extracted from hair follicles that had been subjected to different treatments (control, T3, steviol). RNA was processed for Affymetrix® DNA microarray analysis in order to identify effects of compounds on gene expression. Where appropriate, RNA expression levels were further quantified by RT-PCR using the ABI 7900 Taqman instrumentation.

[4] = tested on: Human hair follicles; experiment: Affymetrix DNA microarray gene expression in hair follicles; assay type: cell-based; conditions: day 7 RNA
Method: as §1, with “instrumentation. Global effects of steviol on gene expression were determined by transcriptomics i.e. DNA microarray analysis. The obtained data were processed with Genedata software tools.” for “instrumentation.”

[5] = tested on: Human hair follicles; experiment: RT-PCR mRNA level of marker genes in hair follicles; assay type: cell-based
Method: as §1, with “The effect of steviol (at 0.625 to 5 μg/ml) was tested in parallel.” left out, “instrumentation. The mRNA level of some marker genes involved in growth and/or differentiation of cells in the skin and in hair follicle was further determined by RT-PCR and is shown in Table 3.” for “instrumentation.”

[6] = Stabilization of steviol in acidic aqueous solution (discoloration, Pantone color index); assay type: physicochemical; conditions: for Pantone index (color index of solution): 1% solution in water
Method: Steviol was dissolved at 1 wt.-% in water and the pH adjusted at different values as shown below. […] However, the more acidic the pH, the less discoloration was observed as reported by the patone color index. Color index of 1% Steviol solution in water at different pH: […]

CC1(C)[C@@H](O[C@H]2O[C@H](C(=O)O)[C@@H](O)[C@H](O)[C@H]2O[C@@H]2O[C@H](C(=O)O)[C@@H](O)[C@H](O)[C@H]2O)CC[C@]2(C)[C@H]3C(=O)C=C4[C@@H]5C[C@@](C)(C(=O)O)CC[C@]5(C)CC[C@@]4(C)[C@]3(C)CC[C@@H]12 [Glycyrrhizin, reference compound]
Melanin content, percentage of the control ([1]; 1.5 mM): 132%

CCCCCCCCCCCCC/C=C/[C@@H](O)[C@@H](N)COP(=O)([O-])OCC[N+](C)(C)C [Sphingosylphosphorylcholine, reference compound]
Pigmentation (remaining hair follicle pigmentation score) ([2]; 1 microM): +++

N[C@@H](Cc1cc(I)c(Oc2ccc(O)c(I)c2)c(I)c1)C(=O)O [Triiodothyronine, reference compound]
Growth (% of control) ([3]; 30 μM, day 0, 4, 7): 133 % of control

C=C1C[C@@]23CC[C@H]4[C@@](C)(CCC[C@@]4(C)C(=O)O)[C@@H]2CC[C@]1(O)C3 [Steviol, steviol]
Growth (% of control) ([3]; 0.625 μg/mL): 122 % of control
Growth (% of control) ([3]; 1.25 μg/mL): 121 % of control
Growth (% of control) ([3]; 2.5 μg/mL): 113 % of control
Growth (% of control) ([3]; 5 μg/mL): 117 % of control
Elongation of hair follicles (in words) ([3]; 0.625 to 5 μg/ml): dose-dependently favoured the elongation of hair follicles
Ratio of steviol-treated/untreated, gene CASP8 and FADD-like apoptosis regulator [4]: 2.58
Ratio of steviol-treated/untreated, gene Chemokine (C-X-C motif) ligand 12 (stromal cell-derived factor 1) [4]: 2.22
Ratio of steviol-treated/untreated, gene Collagen, type IV, alpha 6 [4]: 2.04
Ratio of steviol-treated/untreated, gene Fibroblast growth factor 7 (keratinocyte growth factor) [4]: 2.91
Ratio of steviol-treated/untreated, gene Insulin-like growth factor 1 receptor [4]: 2.00
Ratio of steviol-treated/untreated, gene Integrin, alpha 6 [4]: 2.15
Ratio of steviol-treated/untreated, gene TIMP metallopeptidase inhibitor 3 [4]: 2.32
Ratio of steviol-treated/untreated, gene Topoisomerase (DNA) II alpha 170 kDa [4]: 2.45
Ratio of steviol-treated/untreated, gene Transmembrane protein with EGF-like and two follistatin-like domains 2 [4]: 3.10
Fold changes (versus control), Integrin alpha-6 mRNA ([5]; 0.625 μg/mL): 1.62 ± 0.06
Fold changes (versus control), COX-2 mRNA ([5]; 1.25 μg/mL): 0.46 ± 0.17
Fold changes (versus control), HO-1 mRNA ([5]; 1.25 μg/mL): 0.64 ± 0.08
Fold changes (versus control), Involucrin mRNA ([5]; 1.25 μg/mL): 0.51 ± 0.22
Fold changes (versus control), Keratin 6 mRNA ([5]; 10 μg/mL): 1.33 ± 0.11
Melanin content, percentage of the control ([1]; 0.25 microM): 109%
Production of melanin in human melanocytes (in words) ([1]; 0.25 to 1 micro M): clear dose dependent positive effect on the production of melanin
Melanin content, percentage of the control ([1]; 0.5 micro M): 124%
Melanin content, percentage of the control ([1]; 1 micro M): 130%
Pantone index (color index of solution) ([6]; pH 6): 155
Pantone index (color index of solution) ([6]; pH 6.5): 155
Pantone index (color index of solution) ([6]; pH 7): 158
Pantone index (color index of solution) ([6]; pH 9): 160
Time until solution turns brown (instability) ([6]; 1 wt.-% in water, pH 9): ≤ 1 days
Pigmentation (remaining hair follicle pigmentation score) ([2]; 0.625 microM): +++
Pigmentation (remaining hair follicle pigmentation score) ([2]; 1.25 microM): ++
